PMC2185891 (The Journal of Experimental Medicine, 1980)

Experiments:
[1] = target: T1, N-formylated peptide receptor on U937 cells (Homo sapiens, UniProt P21462); experiment: fMet-Leu-[3H]Phe-binding assay on U937 cells; details: U937 cells incubated with cytochalasin B
T1 sequence (P21462 1-350): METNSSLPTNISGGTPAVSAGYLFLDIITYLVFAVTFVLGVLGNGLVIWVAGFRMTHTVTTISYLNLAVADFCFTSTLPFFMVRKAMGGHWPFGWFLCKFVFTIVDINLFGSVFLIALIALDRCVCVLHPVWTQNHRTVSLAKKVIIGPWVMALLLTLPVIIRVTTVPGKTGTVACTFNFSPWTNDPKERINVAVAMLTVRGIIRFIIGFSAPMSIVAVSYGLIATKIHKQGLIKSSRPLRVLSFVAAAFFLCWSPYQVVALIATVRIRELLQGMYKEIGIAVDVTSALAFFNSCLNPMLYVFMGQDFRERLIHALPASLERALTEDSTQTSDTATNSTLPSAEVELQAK

[2] = tested on: human peripheral blood monocytes; details: ref M. C. Pike and R. Snyderman. Unpublished observation; cited from earlier work
U937 cells = experiment: Chemotaxis of U937 cells, modified Boyden chambers; type: cell-based, human; details: U937 cells cultured 48 h with lymphokines; Fig. 4

Molecule | effect on amount of fMet-Leu-[3H]Phe bound [1] | potency for human monocyte chemotaxis relative to fMet-Leu-Phe [2] | relative chemotactic potency (U937 cells)
C=C1[C@@H](C)[C@H]2[C@H](Cc3ccccc3)NC(=O)[C@]23OC(=O)/C=C/[C@H](O)CCC[C@@H](C)C/C=C/[C@H]3[C@@H]1O [cytochalasin B] | did not affect | – | –
N-formyl-norleucyl-leucyl-phenylalanine [fNle-Leu-Phe] | – | less than that of fMet-Leu-Phe | approximately equipotent
fMet-Met-Met [N-formyl-methionyl-methionyl-methionine] | – | less than that of fMet-Leu-Phe | approximately equipotent
